According to paper PMC6713104, “New peptide derived antimalaria and antimicrobial agents bearing sulphonamide moiety” (Journal of Enzyme Inhibition and Medicinal Chemistry, 2019):
Values after ≈ are worked out from the molar mass of the structure shown. Read-outs that look alike come from different tables or passages of the source. Non-standard residues stand in square brackets, D forms with d. Residues, ends and D or L forms follow the SMILES beside them. ξ: configuration not given here. *: point of attachment. Tos = Cc1ccc(S(=O)(=O)*)cc1; βNA = c1ccc2cc(N*)ccc2c1; ξA = CC(N)C(=O)O

Tests used:
[1] = tested on: Plasmodium berghei infection in mice; assay: In vivo antimalaria test; details: P. berghei infected mice; for inhibition in vivo at 100 mg/kg / inhibition in vivo at 200 mg/kg: Plasmodium berghei, oral
Experimental: Experimental Design and Treatment of Mice. Methods of Peter et al.[30] and Kalra et al.[31] for antiplasmodial assay against Plasmodium berghei infection in mice with some modifications were employed. About eighty infected mice were randomly divided into five groups, each having […] mice. The inoculum was prepared from a donor mouse with rising parasitemia of 60.42%. After 7 days of infection, animals begin to receive treatment (100 and 200 mg/kg b wt.) of the synthesized compounds (7a–7n) for 12 days with constant check of the percentage of parasitemia after a 4-day interval. Artemisinin (100 and 200 mg/kg body weight.) was given to the other mice in group three as positive control, group four was not treated and group five was not infected. All the compounds and the drugs were given orally by using a standard intragastric tube. For all parasitemia determination, blood samples were collected from tail snip of each mouse and thin smears prepared and stained with 10% Giemsa solution. The uniform fields of each stained slide (for each mouse) were examined under microscope with an oil immersion objective of 100X magnification power and average percent of parasitemia was determined.
To determine the in vivo activity, the compounds were tested against P. berghei NK(65 Strain) infection mice., the animals were obtained from Nigeria institute for Trypanosoma and onchocercarioses Research (NTIR) Vom, Plateau State Nigeria. The permission and approval for the use of animals in this experiment were granted by the Animal Ethics Committee, Federal College of Vetrenary Medical Laboratory, Vom, Plateau State. Method of Peter et al.[30], for antiplasmodial assay against P. berghei in mice with some modification were employed. Artemisimin was used as treated control of the experiments. The percentage inhibition of parasite multiplication was calculated comparing the treated group with untreated group by means of the following formula[39] [(A − B)/A] × 100; where A = parasitaemia in the untreated group and B = parasitemia in the test group. […] Most of the compounds were active against P. berghei after 7 days post-infection by reducing the parasiteamia by at least 40% when in a dose of 100 mg/kg (Table 5). The inhibition of parasitaemia increased on 12th day post infection for almost all the compounds. […] However in consideration of the compounds ability to inhibit parasitaemia to the control drug. […] These compounds should be considered for further studies because of its promising activities.

P. falciparum strain W2 = assay: In vitro antimalarial assay; format: cell-based; details: Plasmodium falciparum, W2, P. falciparum
S. typhi = assay: Antimicrobial MIC, agar cup diffusion; format: cell-based; details: Salmonella enterica, read-out: MIC (minimum inhibitory concentration)
E. coli = assay: Antimicrobial MIC, agar cup diffusion; format: cell-based; details: Escherichia coli, read-out: MIC (minimum inhibitory concentration)
C. albicans = assay: Antimicrobial MIC, agar cup diffusion; format: cell-based; details: Candida albicans, read-out: MIC (minimum inhibitory concentration)
B. subtilis = assay: Antimicrobial MIC, agar cup diffusion; format: cell-based; details: for MIC: Bacillus subtilis, B. subtilis, read-out: MIC (minimum inhibitory concentration); for activity against Bacillus compared with ciprofloxacin: in words
K. pneumoniae = assay: Antimicrobial MIC, agar cup diffusion; format: cell-based; details: Klebsiella pneumoniae, read-out: MIC (minimum inhibitory concentration)
A. niger = assay: Antimicrobial MIC, agar cup diffusion; format: cell-based; details: Aspergillus niger, read-out: MIC (minimum inhibitory concentration)
Liver function tests = format: in vivo; set-up: Glucose: unit not given here; details: mice, 10 mg/kg
Description: Twenty-four hours before the injecting the compounds, the blood sample of five mice was taken and it was also taken after the last day of treatment, the animals were sacrificed by cervical dislocation and the blood samples were collected by heart puncture. The blood samples for haematological parameters (red blood cell (RBC) count, white blood cell (WBC) count, packed cell volume (PCV), and hemoglobin (HGB)) were collected into EDTA bottles and analyzed using an automated machine (Automated CBC Analyzer: Sysmex KX-21). The liver function tests carried out with the blood of the rats fed with the sulfonamide derivatives were aspartate aminotransperase (AST), alanine transaminase (ALT) and alkaline phosphatase (ALP). Standard laboratory procedure according to Reitman and Franke[32] was used for the determination of parameters.

Haematological analysis = format: in vivo, mice
Description: (§1) Twenty-four hours before the injecting the compounds, the blood sample of five mice was taken and it was also taken after the last day of treatment, the animals were sacrificed by cervical dislocation and the blood samples were collected by heart puncture. The blood samples for haematological parameters (red blood cell (RBC) count, white blood cell (WBC) count, packed cell volume (PCV), and hemoglobin (HGB)) were collected into EDTA bottles and analyzed using an automated machine (Automated CBC Analyzer: Sysmex KX-21).
The blood samples for haematological parameters (red blood cell (RBC) count, white blood cell (WBC) count, packed cell volume (PCV), and haemoglobin (HGB)) were collected into EDTA bottles and analyzed using an automated machine (Automated CBC Analyzer: Sysmex KX-21) (Table 8). From the analysis, even though there is a decrease in the value of RBC, PCV and HB, it is observed that there is no significant changes in the parameters that were analyzed for the control and the test compounds.

[2] = Renal or kidney function test; format: in vivo; details: mice, 10 mg/kg
Description: as §1, with “KX-21). Kidney function tests carried out with the blood of the rats fed with the sulfonamide derivatives were, creatinine and albunim. The method reported by Kaplan and Tengv[33] was used in the determination of creatinine.” for “KX-21).”

[3] = 168 h, read-out: % inhibition 7 days post-treatment (100 mg/kg), day 7
[4] = 168 h, read-out: % inhibition 7 days post-treatment (200 mg/kg), day 7
[5] = 288 h, read-out: % inhibition 12 days post-treatment (100 mg/kg), day 12
[6] = 288 h, read-out: % inhibition 12 days post-treatment (200 mg/kg), day 12
[7] = 48 h, >99% of parasites inhibited from developing to schizonts

Structure (SMILES)	inhibition in vivo at 100 mg/kg [1, 3] [%]	inhibition in vivo at 200 mg/kg [1, 4] [%]	inhibition in vivo at 100 mg/kg [1, 5] [%]	inhibition in vivo at 200 mg/kg [1, 6] [%]	MIC (P. falciparum strain W2; [7]) [µM]	MIC (S. typhi) [µg/mL]	MIC (E. coli) [µg/mL]	MIC (C. albicans) [µg/mL]	MIC (B. subtilis) [µg/mL]	activity against Bacillus compared with ciprofloxacin (B. subtilis)	MIC (K. pneumoniae) [µg/mL]	MIC (A. niger) [µg/mL]	melting point [°C]	ALT (Liver function tests; After) [µ/L]	AST (Liver function tests; After) [µ/L]	Bilirubin (Liver function tests; After) [mg/dL]	Glucose (Liver function tests; After)	T.P. (Liver function tests; After) [g/dL]	ALT (Liver function tests; Before) [µ/L]	AST (Liver function tests; Before) [µ/L]	further results
CC(NS(=O)(=O)c1ccccc1)C(=O)NCC(=O)Nc1ccc(Cl)cc1 (stereo not drawn) [Compound 7b]	51.3	57.6	55.2	53.4	0.87 (≈ 0.344 µg/mL)	602 (≈ 1520 µM)	467 (≈ 1180 µM)	135 (≈ 341 µM)	129 (≈ 326 µM)	greater activity against Bacillus than ciprofloxacin	1690 (≈ 4270 µM)	100 (≈ 253 µM)	140 to 142								
CC(NS(=O)(=O)c1ccccc1)C(=O)NCC(=O)Nc1cccc(F)c1 (stereo not drawn) [Compound 7c]	48.3	40.2	51.3	48.7	0.72 (≈ 0.273 µg/mL)	2690 (≈ 7090 µM)	372 (≈ 980 µM)	3470 (≈ 9140 µM)	3470 (≈ 9140 µM)		129 (≈ 340 µM)		125 to 127	23.5	61.5	0.5	5.0	5.5	20.5	62.0	Bilirubin (Liver function tests; Before): 0.3 mg/dL; Glucose (Liver function tests; Before): 5.6; T.P. (Liver function tests; Before): 5.8 g/dL; HB (Haematological analysis; After treatment): 9.8 g/dL; PCV (Haematological analysis; After treatment): 33%; RBC (Haematological analysis; After treatment): 6.0 × 10^6 mm^3; WBC (Haematological analysis; After treatment): 9.0 × 10^3 mm^3; HB (Haematological analysis; Before treatment): 14.5 g/dL; PCV (Haematological analysis; Before treatment): 38%; RBC (Haematological analysis; Before treatment): 7.5 × 10^6 mm^3; WBC (Haematological analysis; Before treatment): 10.3 × 10^3 mm^3; Albumin ([2]; After): 3.0 g/dL; Creatinine ([2]; After): 0.3 mg/dL; Albumin ([2]; Before): 3.5 g/dL; Creatinine ([2]; Before): 0.3 mg/dL
Cc1ccc(NC(=O)CNC(=O)C(C)NS(=O)(=O)c2ccccc2)cc1 (stereo not drawn) [Compound 7e]	62.3	40.2	66.7	50.7	0.05 (≈ 0.0188 µg/mL)	194 (≈ 517 µM)	6330 (≈ 16900 µM)	28.8 (≈ 76.7 µM)				2090 (≈ 5560 µM)	160 to 162	22.0	60.5	0.2	5.0	4.5	24.0	64.0	ability to inhibit parasitaemia compared to the control drug ([1]; in words): almost the same or better activity compared to the artemisinin; MIC (P. falciparum strain W2): 30 µM (≈ 11.3 µg/mL); Bilirubin (Liver function tests; Before): 0.3 mg/dL; Glucose (Liver function tests; Before): 5.8; T.P. (Liver function tests; Before): 5.8 g/dL; HB (Haematological analysis; After treatment): 11.0 g/dL; PCV (Haematological analysis; After treatment): 35%; RBC (Haematological analysis; After treatment): 6.0 × 10^6 mm^3; WBC (Haematological analysis; After treatment): 10.5 × 10^3 mm^3; HB (Haematological analysis; Before treatment): 14.1 g/dL; PCV (Haematological analysis; Before treatment): 36%; RBC (Haematological analysis; Before treatment): 6.85 × 10^6 mm^3; WBC (Haematological analysis; Before treatment): 12.2 × 10^3 mm^3; Albumin ([2]; After): 3.5 g/dL; Creatinine ([2]; After): 0.3 mg/dL; Albumin ([2]; Before): 4.1 g/dL; Creatinine ([2]; Before): 0.3 mg/dL
CC(NS(=O)(=O)c1ccccc1)C(=O)NCC(=O)Nc1ccc2ccccc2c1 (stereo not drawn) [Compound 7g, N-(2-(naphthalene-2-ylamino)-2-oxoethyl)-2-(phenylsulfonamido)propanamide]	27.5	54.7	36.8	51.9	3.23 (≈ 1.33 µg/mL)	79 (≈ 192 µM)		29.7 (≈ 72.2 µM)	141 (≈ 343 µM)	greater activity against Bacillus than ciprofloxacin	166 (≈ 403 µM)	158 (≈ 384 µM)	170 to 172								
Cc1ccc(S(=O)(=O)NC(C)C(=O)NCC(=O)Nc2ccc3ccccc3c2)cc1 (stereo not drawn) [Compound 7n, 2–(4-methylphenylsulfonamido)-N-(2-(naphthalene-2-ylamino)-2-oxoethyl)propanamide] (Tos-[ξA]-Gly-βNA)	47.8	63.8	49.1	71.7	2.34 (≈ 0.996 µg/mL)	617 (≈ 1450 µM)	123 (≈ 289 µM)	155 (≈ 364 µM)				39 (≈ 91.7 µM)	174 to 176								
